The structures appear in SMILES notation. pIC50: −log10 of the molar value.

The experiment deals with Nitric oxide synthase, inducible (Homo sapiens, UniProt P35228). The experiment in a line: Inhibition of inducible nitric oxide synthase in activated macrophages.
Nitric oxide synthase, inducible, sequence (P35228 whole entry): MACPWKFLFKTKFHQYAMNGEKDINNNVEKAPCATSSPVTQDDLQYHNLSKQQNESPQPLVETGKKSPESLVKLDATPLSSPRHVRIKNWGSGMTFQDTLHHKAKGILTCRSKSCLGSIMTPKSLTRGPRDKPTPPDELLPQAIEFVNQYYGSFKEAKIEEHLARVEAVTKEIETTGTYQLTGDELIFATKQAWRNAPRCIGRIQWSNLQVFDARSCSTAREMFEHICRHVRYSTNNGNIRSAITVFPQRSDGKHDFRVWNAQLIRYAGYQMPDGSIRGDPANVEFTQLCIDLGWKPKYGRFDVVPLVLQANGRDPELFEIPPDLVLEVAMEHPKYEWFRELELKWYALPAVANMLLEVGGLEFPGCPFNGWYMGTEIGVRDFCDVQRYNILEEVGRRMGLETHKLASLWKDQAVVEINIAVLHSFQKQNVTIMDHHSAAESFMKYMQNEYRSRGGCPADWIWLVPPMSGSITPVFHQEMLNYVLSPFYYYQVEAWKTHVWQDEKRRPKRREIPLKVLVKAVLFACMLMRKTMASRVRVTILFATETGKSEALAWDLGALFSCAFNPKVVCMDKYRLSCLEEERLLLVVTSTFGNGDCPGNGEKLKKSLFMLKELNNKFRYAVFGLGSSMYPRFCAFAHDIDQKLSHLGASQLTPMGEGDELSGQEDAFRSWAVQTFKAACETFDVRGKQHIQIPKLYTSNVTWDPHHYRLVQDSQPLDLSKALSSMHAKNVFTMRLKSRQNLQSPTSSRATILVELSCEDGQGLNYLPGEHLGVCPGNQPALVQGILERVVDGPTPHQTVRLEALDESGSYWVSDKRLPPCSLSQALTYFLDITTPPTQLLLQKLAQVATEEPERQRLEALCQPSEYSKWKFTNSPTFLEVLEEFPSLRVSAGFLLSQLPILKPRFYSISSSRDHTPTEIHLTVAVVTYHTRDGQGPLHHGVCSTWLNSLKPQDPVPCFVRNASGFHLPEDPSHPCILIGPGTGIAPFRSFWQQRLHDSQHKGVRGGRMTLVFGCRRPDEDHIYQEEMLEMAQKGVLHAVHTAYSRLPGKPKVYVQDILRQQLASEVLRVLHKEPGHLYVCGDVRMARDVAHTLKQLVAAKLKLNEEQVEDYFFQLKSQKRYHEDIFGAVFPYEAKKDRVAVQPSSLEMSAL
As usually defined, the pIC50 is −log10 of the IC50, conventionally taken in molar units. A lower pIC50 goes with a high IC50. For the compound `CC1(C)CC[C@]2(C(=O)O)CC[C@]3(C)C(=CC[C@@H]4[C@@]5(C)CCC(=O)C(C)(C)[C@@H]5CC[C@]43C)[C@@H]2C1` [Oleanonic Acid], the negative logarithm of the IC50 (pIC50) was 4.43.

In turn, `CC1(C)CC[C@]2(C(=O)O)CC[C@]3(C)C(=CC[C@@H]4[C@@]5(C)CC[C@H](O)C(C)(C)[C@@H]5CC[C@]43C)[C@@H]2C1` [Oleanolic acid (OA)(Compound 1)] showed a pIC50 of under 4.40.

`CC1(C)CC[C@]2(C(=O)O)CC[C@]3(C)C(=CCC4[C@@]5(C)C=CC(=O)C(C)(C)C5CC[C@]43C)C2C1` (stereo partly drawn) [(4aS,6aS,6bR,12aR)-2,2,6a,6b,9,9,12a-Heptamethyl-10-oxo-1,3,4,5,6,6a,6b,7,8,8a,9,10,12a,12b,13,14b-hexadecahydro-2H-picene-4a-carboxylic acid] gave a negative logarithm of the IC50 (pIC50) of 5.25.

As for `CC1(C)CC[C@]2(C(=O)O)CC[C@]3(C)C(=CC(=O)C4[C@@]5(C)C=C(C#N)C(=O)C(C)(C)C5CC[C@]43C)C2C1` (stereo partly drawn) [(4aS,6aS,6bR,12aS)-11-Cyano-2,2,6a,6b,9,9,12a-heptamethyl-10,13-dioxo-1,3,4,5,6,6a,6b,7,8,8a,9,10,12a,12b,13,14b-hexadecahydro-2H-picene-4a-carboxylic acid], the pIC50 was 7.40.

For `CC1(C)CC[C@]2(C(=O)O)CC[C@]3(C)C(=CCC4[C@@]5(C)C=C(C#N)C(=O)C(C)(C)C5CC[C@]43C)C2C1` (stereo partly drawn) [(4aS,6aS,6bR,12aR)-11-Cyano-2,2,6a,6b,9,9,12a-heptamethyl-10-oxo-1,3,4,5,6,6a,6b,7,8,8a,9,10,12a,12b,13,14b-hexadecahydro-2H-picene-4a-carboxylic acid], the pIC50 was 6.22.

Compound `CC1(C)CC[C@]2(C(=O)O)CC[C@]3(C)C(C(=O)CC4[C@@]5(C)C=CC(=O)C(C)(C)C5CC[C@]43C)C2C1` (stereo partly drawn) [(4aS,6aR,6bR,12aR)-2,2,6a,6b,9,9,12a-Heptamethyl-10,14-dioxo-1,3,4,5,6,6a,6b,7,8,8a,9,10,12a,12b,13,14,14a,14b-octadecahydro-2H-picene-4a-carboxylic acid] showed a negative-log IC50 (pIC50) of 5.48.

Values taken from BindingDB's records for doi:10.1016/j.bmcl.2005.03.031 (Dartmouth College, 2005).
